Tested on: MV-4-11 cells
Test: Gene expression microarray analysis (Affymetrix PrimeView) and GSEA
Format: cell-based, human
Design: RFU PODN (11730768_x_at) / Fold change /veh PODN (11730768_x_at) / RFU LINC00158 (11744669_a_at) / Fold change /veh LINC00158 (11744669_a_at) / RFU DUSP10 (11751237_a_at) / Fold change /veh DUSP10 (11751237_a_at) / RFU ID3 (11757404_x_at) / Fold change /veh ID3 (11757404_x_at) / RFU PLEKHG5 (11737974_s_at) / Fold change /veh PLEKHG5 (11737974_s_at) / RFU LRRC4B (11730491_at) / Fold change /veh LRRC4B (11730491_at) / RFU GIMAP4 (11747438_a_at) / Fold change /veh GIMAP4 (11747438_a_at) / RFU KRT8 (11758183_x_at) / Fold change /veh KRT8 (11758183_x_at) / RFU CNN1 (11734310_a_at) / Fold change /veh CNN1 (11734310_a_at) / RFU VPS37D (11726825_at) / Fold change /veh VPS37D (11726825_at) / RFU C10orf10 (11716522_x_at) / Fold change /veh C10orf10 (11716522_x_at) / RFU KIR2DL2 /// KIR2DL4 /// KIR2DL5A /// KIR2DL5B /// KIR2DS1 /// KIR2DS2 /// KIR2DS3 /// KIR2DS4 /// KIR3DL3 /// KIR3DL3 /// KIR3DS1 (11738374_at) / Fold change /veh KIR2DL2 /// KIR2DL4 /// KIR2DL5A /// KIR2DL5B /// KIR2DS1 /// KIR2DS2 /// KIR2DS3 /// KIR2DS4 /// KIR3DL3 /// KIR3DL3 /// KIR3DS1 (11738374_at) / RFU C1QL1 (11718748_at) / Fold change /veh C1QL1 (11718748_at) / RFU TMPRSS4 (11747572_a_at) / Fold change /veh TMPRSS4 (11747572_a_at) / RFU HAMP (11756126_x_at) / Fold change /veh HAMP (11756126_x_at) / RFU RNFT2 (11725882_a_at) / Fold change /veh RNFT2 (11725882_a_at) / RFU NR4A2 (11747474_a_at) / Fold change /veh NR4A2 (11747474_a_at) / RFU ABCC12 (11746883_a_at) / Fold change /veh ABCC12 (11746883_a_at) / RFU TMEM136 (11760407_x_at) / Fold change /veh TMEM136 (11760407_x_at) / RFU CLDN22 /// WWC2 (11732394_at) / Fold change /veh CLDN22 /// WWC2 (11732394_at) / RFU HLA-DPB1 (11760878_x_at) / Fold change /veh HLA-DPB1 (11760878_x_at) / RFU SPINT1 (11716480_a_at) / Fold change /veh SPINT1 (11716480_a_at) / RFU GAP43 (11754022_s_at) / Fold change /veh GAP43 (11754022_s_at) / RFU A4GNT (11735810_at) / Fold change /veh A4GNT (11735810_at) / RFU PRB3 (11715151_x_at) / Fold change /veh PRB3 (11715151_x_at) / RFU TUBB4B (11761932_at) / Fold change /veh TUBB4B (11761932_at) / RFU CAPN14 (11732068_a_at) / Fold change /veh CAPN14 (11732068_a_at) / RFU TMCC2 (11721928_a_at) / Fold change /veh TMCC2 (11721928_a_at) / RFU IRGQ (11745062_a_at) / Fold change /veh IRGQ (11745062_a_at) / RFU FAM174B (11720279_a_at) / Fold change /veh FAM174B (11720279_a_at) / RFU TMPRSS4 (11748680_a_at) / Fold change /veh TMPRSS4 (11748680_a_at) / RFU FAM212B (11763350_a_at) / Fold change /veh FAM212B (11763350_a_at) / RFU PLEKHG5 (11743358_a_at) / Fold change /veh PLEKHG5 (11743358_a_at) / RFU ZSCAN30 (11745921_a_at) / Fold change /veh ZSCAN30 (11745921_a_at) / RFU CMKLR1 (11741424_a_at) / Fold change /veh CMKLR1 (11741424_a_at) / RFU LOC101060620 /// MAPK8IP1 (11723275_at) / Fold change /veh LOC101060620 /// MAPK8IP1 (11723275_at) / RFU SPTSSB (11747773_x_at) / Fold change /veh SPTSSB (11747773_x_at) / RFU PRSS12 (11739890_at) / Fold change /veh PRSS12 (11739890_at) / RFU BIN1 (11741810_x_at) / Fold change /veh BIN1 (11741810_x_at) / RFU WNT11 (11732464_a_at) / Fold change /veh WNT11 (11732464_a_at) / RFU C10orf10 (11716521_a_at) / Fold change /veh C10orf10 (11716521_a_at) / RFU C5orf56 (11738089_at) / Fold change /veh C5orf56 (11738089_at) / RFU CYB561 (11721691_x_at) / Fold change /veh CYB561 (11721691_x_at) / RFU ANKRD19P (11752326_a_at) / Fold change /veh ANKRD19P (11752326_a_at) / RFU OR2T12 /// OR2T33 /// OR2T8 (11738714_s_at) / Fold change /veh OR2T12 /// OR2T33 /// OR2T8 (11738714_s_at) / RFU VCAN (11748164_a_at) / Fold change /veh VCAN (11748164_a_at) / RFU JSRP1 (11732532_at) / Fold change /veh JSRP1 (11732532_at) / RFU KRTAP10-11 (11738290_x_at) / Fold change /veh KRTAP10-11 (11738290_x_at) / RFU MYO3A (11730013_a_at) / Fold change /veh MYO3A (11730013_a_at) / RFU EBF3 (11725865_a_at) / Fold change /veh EBF3 (11725865_a_at) / RFU CAMK2N1 (11719241_x_at) / Fold change /veh CAMK2N1 (11719241_x_at) / RFU C5orf56 (11738088_a_at) / Fold change /veh C5orf56 (11738088_a_at) / RFU OLFML3 (11715873_a_at) / Fold change /veh OLFML3 (11715873_a_at) / RFU LOC100653217 /// NTM (11731650_a_at) / Fold change /veh LOC100653217 /// NTM (11731650_a_at) / RFU MAPK11 (11762145_a_at) / Fold change /veh MAPK11 (11762145_a_at) / RFU FIZ1 (11724087_x_at) / Fold change /veh FIZ1 (11724087_x_at) / RFU OASL (11726364_x_at) / Fold change /veh OASL (11726364_x_at) / RFU SOX15 (11748057_x_at) / Fold change /veh SOX15 (11748057_x_at) / RFU CD79A (11719716_a_at) / Fold change /veh CD79A (11719716_a_at) / RFU HIST1H1D (11736915_at) / Fold change /veh HIST1H1D (11736915_at) / RFU CASKIN2 (11723855_a_at) / Fold change /veh CASKIN2 (11723855_a_at) / RFU LOC730098 (11760151_x_at) / Fold change /veh LOC730098 (11760151_x_at) / RFU OR4N2 (11742367_at) / Fold change /veh OR4N2 (11742367_at) / RFU PRRT2 (11749266_a_at) / Fold change /veh PRRT2 (11749266_a_at) / RFU SNX32 (11753110_a_at) / Fold change /veh SNX32 (11753110_a_at) / RFU CDHR5 (11726645_a_at) / Fold change /veh CDHR5 (11726645_a_at) / RFU RCAN1 (11760418_a_at) / Fold change /veh RCAN1 (11760418_a_at) / RFU FAM167A (11723789_a_at) / Fold change /veh FAM167A (11723789_a_at) / RFU FAM26E (11764081_at) / Fold change /veh FAM26E (11764081_at) / RFU ISYNA1 (11749810_s_at) / Fold change /veh ISYNA1 (11749810_s_at) / RFU ACY1 (11761880_at) / Fold change /veh ACY1 (11761880_at) / RFU 11764098_at / Fold change /veh 11764098_at / RFU SAMD14 (11745864_x_at) / Fold change /veh SAMD14 (11745864_x_at) / RFU NPB (11741838_a_at) / Fold change /veh NPB (11741838_a_at) / RFU TMPRSS6 (11731388_a_at) / Fold change /veh TMPRSS6 (11731388_a_at) / RFU KRTAP10-2 (11738614_at) / Fold change /veh KRTAP10-2 (11738614_at) / RFU ARHGAP8 /// PRR5-ARHGAP8 (11727945_x_at) / Fold change /veh ARHGAP8 /// PRR5-ARHGAP8 (11727945_x_at) / RFU KRTAP5-7 /// NADSYN1 (11734609_at) / Fold change /veh KRTAP5-7 /// NADSYN1 (11734609_at) / RFU RASL12 (11751679_a_at) / Fold change /veh RASL12 (11751679_a_at) / RFU CDKN2B (11736163_a_at) / Fold change /veh CDKN2B (11736163_a_at) / RFU PRF1 (11729649_at) / Fold change /veh PRF1 (11729649_at) / RFU, ZNF638 /// ZNF638-IT1 / Fold change vs veh, ZNF638 /// ZNF638-IT1 / RFU, PANK3 / Fold change vs veh, PANK3 / RFU, SH3YL1 / Fold change vs veh, SH3YL1 / RFU, ZEB2 / Fold change vs veh, ZEB2 / RFU, NRIP1 / Fold change vs veh, NRIP1 / RFU, PTTG1IP / Fold change vs veh, PTTG1IP / RFU, CAPN2 / Fold change vs veh, CAPN2 / RFU, MED14 / Fold change vs veh, MED14 / RFU, SNORA58 / Fold change vs veh, SNORA58 / RFU, C1orf63 / Fold change vs veh, C1orf63 / RFU, LRRFIP1 / Fold change vs veh, LRRFIP1 / RFU, NDUFAF7 / Fold change vs veh, NDUFAF7 / RFU, SLC12A2 / Fold change vs veh, SLC12A2 / RFU, IBTK / Fold change vs veh, IBTK / RFU, ESF1 / Fold change vs veh, ESF1 / Fold change vs veh, TMEM50B / RFU, TAOK1 / Fold change vs veh, TAOK1 / RFU, ACBD3 / Fold change vs veh, ACBD3 / RFU, TMA16 / Fold change vs veh, TMA16 / RFU, RWDD3 / Fold change vs veh, RWDD3 / RFU, BCAT1 / Fold change vs veh, BCAT1 / RFU, EDEM3 / Fold change vs veh, EDEM3 / RFU, TMEM33 / Fold change vs veh, TMEM33 / RFU, WDR75 / Fold change vs veh, WDR75 / RFU, AHCTF1 / Fold change vs veh, AHCTF1 / RFU, TFRC / Fold change vs veh, TFRC / RFU, ZDHHC17 / Fold change vs veh, ZDHHC17 / RFU, NOM1 / Fold change vs veh, NOM1 / RFU, ARL8B / Fold change vs veh, ARL8B / RFU, ZBTB11 / Fold change vs veh, ZBTB11 / RFU, TAMM41 / Fold change vs veh, TAMM41 / RFU, KIAA1704 /// LOC100996395 / Fold change vs veh, KIAA1704 /// LOC100996395 / RFU, ING1 / Fold change vs veh, ING1 / RFU, TRMT61B / Fold change vs veh, TRMT61B / RFU, FUBP3 / Fold change vs veh, FUBP3 / RFU, TP53 / Fold change vs veh, TP53 / RFU, TNKS2 / Fold change vs veh, TNKS2 / RFU, ZFP14 / Fold change vs veh, ZFP14 / RFU, ACTR2 / Fold change vs veh, ACTR2 / RFU, PPP3R1 / Fold change vs veh, PPP3R1 / RFU, PIK3R1 / Fold change vs veh, PIK3R1 / RFU, HNRNPA1 / Fold change vs veh, HNRNPA1 / RFU, RNF170 / Fold change vs veh, RNF170 / RFU, ZNF28 / Fold change vs veh, ZNF28 / RFU, RNGTT / Fold change vs veh, RNGTT / RFU, OGT / Fold change vs veh, OGT / RFU, BRD1 / Fold change vs veh, BRD1 / RFU, MARS / Fold change vs veh, MARS / RFU, ZNF655 / Fold change vs veh, ZNF655 / RFU, FAHD1 / Fold change vs veh, FAHD1 / RFU, BDP1 / Fold change vs veh, BDP1 / RFU, LRRCC1 / Fold change vs veh, LRRCC1 / RFU, ARID1A / Fold change vs veh, ARID1A / RFU, ZNF146 / Fold change vs veh, ZNF146 / RFU, ZNF330 / Fold change vs veh, ZNF330 / RFU, GPN3 / Fold change vs veh, GPN3 / RFU, C9orf123 / Fold change vs veh, C9orf123 / RFU, N4BP2L2 / Fold change vs veh, N4BP2L2 / RFU, ARFIP1 / Fold change vs veh, ARFIP1 / RFU, FAM179B / Fold change vs veh, FAM179B / RFU, BCL10 / Fold change vs veh, BCL10 / RFU, UHRF1BP1L / Fold change vs veh, UHRF1BP1L / RFU, BET1 / Fold change vs veh, BET1 / RFU, CNOT2 / Fold change vs veh, CNOT2 / RFU, ZNF268 / Fold change vs veh, ZNF268 / Fold change vs veh, ZNF507 / RFU, DGCR2 / Fold change vs veh, DGCR2 / RFU, WDSUB1 / Fold change vs veh, WDSUB1 / Fold change vs veh, HSP90B1 /// MIR3652 / RFU, ADSS / Fold change vs veh, ADSS / RFU, GK / Fold change vs veh, GK / RFU, ZNF148 / Fold change vs veh, ZNF148 / RFU, TAF9 / Fold change vs veh, TAF9 / RFU, SLC1A5 / Fold change vs veh, SLC1A5 / RFU, SLMO2 / Fold change vs veh, SLMO2 / RFU, ABCC4 / Fold change vs veh, ABCC4 / RFU, LOC101060439 /// RAP1B / Fold change vs veh, LOC101060439 /// RAP1B / RFU, RFX7 / Fold change vs veh, RFX7 / RFU, GTPBP10 / Fold change vs veh, GTPBP10 / RFU, CNEP1R1 / Fold change vs veh, CNEP1R1 / RFU, BIVM-ERCC5 /// ERCC5 / Fold change vs veh, BIVM-ERCC5 /// ERCC5 / RFU, ILF3 / Fold change vs veh, ILF3 / RFU 11762660_at / Fold change /veh 11762660_at / RFU VCAN (11757783_s_at) / Fold change /veh VCAN (11757783_s_at) / RFU DDX43 (11728927_at) / Fold change /veh DDX43 (11728927_at) / RFU KRT8 (11758188_x_at) / Fold change /veh KRT8 (11758188_x_at) / RFU NKD1 (11759106_at) / Fold change /veh NKD1 (11759106_at) / RFU SRD5A1 (11742802_a_at) / Fold change /veh SRD5A1 (11742802_a_at) / RFU TPSAB1 /// TPSB2 (11721975_s_at) / Fold change /veh TPSAB1 /// TPSB2 (11721975_s_at) / RFU GSTM3 (11746129_a_at) / Fold change /veh GSTM3 (11746129_a_at) / RFU IL23R (11737362_x_at) / Fold change /veh IL23R (11737362_x_at) / RFU TMEM51 (11727254_a_at) / Fold change /veh TMEM51 (11727254_a_at) / RFU PIWIL2 (11732686_x_at) / Fold change /veh PIWIL2 (11732686_x_at) / RFU ORM1 (11744905_x_at) / Fold change /veh ORM1 (11744905_x_at) / RFU CCDC152 (11743942_at) / Fold change /veh CCDC152 (11743942_at) / RFU ECM1 (11717891_a_at) / Fold change /veh ECM1 (11717891_a_at) / RFU IL23R (11748794_a_at) / Fold change /veh IL23R (11748794_a_at) / RFU TNFAIP8L3 (11732012_x_at) / Fold change /veh TNFAIP8L3 (11732012_x_at) / RFU MBOAT4 (11741988_at) / Fold change /veh MBOAT4 (11741988_at) / RFU 11764193_at / Fold change /veh 11764193_at / RFU TMEM53 (11763286_at) / Fold change /veh TMEM53 (11763286_at) / RFU MAGEB2 (11727129_at) / Fold change /veh MAGEB2 (11727129_at) / RFU TMEM200A (11744735_a_at) / Fold change /veh TMEM200A (11744735_a_at) / RFU CCDC152 (11751479_a_at) / Fold change /veh CCDC152 (11751479_a_at) / RFU FAM211A (11726209_a_at) / Fold change /veh FAM211A (11726209_a_at) / RFU RGS16 (11746705_a_at) / Fold change /veh RGS16 (11746705_a_at) / RFU VCAN (11755009_s_at) / Fold change /veh VCAN (11755009_s_at) / RFU RHOB (11743442_s_at) / Fold change /veh RHOB (11743442_s_at) / RFU RGS16 (11720943_a_at) / Fold change /veh RGS16 (11720943_a_at) / RFU RGS16 (11720944_at) / Fold change /veh RGS16 (11720944_at) / RFU, VPS4B / Fold change vs veh, VPS4B / RFU, CREB1 / Fold change vs veh, CREB1 / RFU, DNAJC13 / Fold change vs veh, DNAJC13 / RFU, GNAQ / Fold change vs veh, GNAQ / RFU, CDK5R1 / Fold change vs veh, CDK5R1 / RFU, ZRANB3 / Fold change vs veh, ZRANB3 / RFU, CUL4A / Fold change vs veh, CUL4A / RFU, CCNY / Fold change vs veh, CCNY / RFU, UFL1 / Fold change vs veh, UFL1 / RFU, COG3 / Fold change vs veh, COG3 / RFU, DIAPH2 / Fold change vs veh, DIAPH2 / RFU, SKA2 / Fold change vs veh, SKA2 / RFU, AFF3 / Fold change vs veh, AFF3 / RFU, LMF1 / Fold change vs veh, LMF1 / RFU, IPO11 / Fold change vs veh, IPO11 / RFU, DFFB / Fold change vs veh, DFFB / RFU, FOXP1 / Fold change vs veh, FOXP1 / RFU, CARD8 / Fold change vs veh, CARD8 / RFU, STRN3 / Fold change vs veh, STRN3 / RFU, ADK / Fold change vs veh, ADK / RFU, RASSF2 / Fold change vs veh, RASSF2 / RFU, WIPF1 / Fold change vs veh, WIPF1 / RFU, LARP1B / Fold change vs veh, LARP1B / RFU, RASA1 / Fold change vs veh, RASA1 / RFU, RB1 / Fold change vs veh, RB1 / RFU, PPFIA1 / Fold change vs veh, PPFIA1 / RFU, MAT2A / Fold change vs veh, MAT2A / RFU, CCT5 / Fold change vs veh, CCT5 / RFU, WDR92 / Fold change vs veh, WDR92 / RFU, CUX1 / Fold change vs veh, CUX1 / RFU, TTC7A / Fold change vs veh, TTC7A / RFU, TMEM135 / Fold change vs veh, TMEM135 / RFU, DEPTOR / Fold change vs veh, DEPTOR / RFU, CPM / Fold change vs veh, CPM / RFU, DNAJB6 / Fold change vs veh, DNAJB6 / RFU, CACNA2D3 / Fold change vs veh, CACNA2D3 / RFU, DTX4 / Fold change vs veh, DTX4 / RFU, TFCP2 / Fold change vs veh, TFCP2 / RFU, GMCL1 /// GMCL1P1 / Fold change vs veh, GMCL1 /// GMCL1P1 / RFU, AEBP2 / Fold change vs veh, AEBP2 / RFU, SNHG1 /// SNORD22 /// SNORD25 /// SNORD26 /// SNORD27 /// SNORD28 /// SNORD29 /// SNORD31 / Fold change vs veh, SNHG1 /// SNORD22 /// SNORD25 /// SNORD26 /// SNORD27 /// SNORD28 /// SNORD29 /// SNORD31 / Fold change (Aza/veh), C12orf56 (ProbeSet 11735607_a_at) / Fold change (ACY-1035/veh), C12orf56 (ProbeSet 11735607_a_at) / Fold change (Aza/veh), FGFR1OP (ProbeSet 11751329_s_at) / Fold change (ACY-1035/veh), FGFR1OP (ProbeSet 11751329_s_at) / Fold change (Aza/veh), VPS36 (ProbeSet 11739960_a_at) / Fold change (ACY-1035/veh), VPS36 (ProbeSet 11739960_a_at) / RFU SYPL1 (11715823_x_at) / Fold change /veh SYPL1 (11715823_x_at) / RFU IGFBP7 (11715501_s_at) / Fold change /veh IGFBP7 (11715501_s_at) / RFU REEP3 (11722064_at) / Fold change /veh REEP3 (11722064_at) / RFU IGLL1 (11728026_x_at) / Fold change /veh IGLL1 (11728026_x_at): dose or concentration left out as unconfirmed
Conditions: MV-4-11 cells, 48 hours

Nc1ccc(-c2cccs2)cc1NC(=O)c1ccc2c(c1)cc(C1CC1)n2CCN1CCOCC1 [ACY-1035]
RFU HIST1H1D (11736915_at): 13.65 RFU

From paper PMC5218480 (PLoS ONE, 2017)
